Like-named read-outs stand apart in the source and are kept apart here.
What was measured:
HCC4017 = assay: Cell viability dose-response, HCC4017; type: cell-based, human
Experimental: (§1) FIG. 6A. […] Cell viability is plotted vs. compound concentration. Compound was added to cells plated at 15% confluence in 96-well plates in RPMI-1640 media supplemented with 5% Fetal Bovine Serum and 2 mM L-Glutamine. After 4 days of incubation, ATP levels were measured using Cell Titer Glo (Promega). Data are presented as the average of 2 replicates ±SEM.
(§2) Selectivity may be measured by the half maximal inhibitory concentration (IC50), which, as used herein, is a measure of the effectiveness of a compound in killing cells. This quantitative measure indicates how much of a particular compound is needed to kill a particular cell population by half (e.g., as indicated by the amount of ATP). […] The IC50 can be determined by constructing a dose-response curve. The lower the IC50, the higher the potency, and the greater the difference between IC50 values for different cell lines (e.g., sensitive lines vs. insensitive lines, and sensitive lines vs. normal lines) the greater the selectivity. […]
(§3) With this information, we synthesized and tested a series of small molecules derived in conception from the oxalamide and chromone scaffold including N-acyl ureas, as shown in Tables 6-8. Each compound was tested in a 12-point dose-response study starting at 50 micromolar and decreasing in 3-fold increments to sub-nanomolar concentrations, in duplicate. Additionally, one or more additional cell line was tested in the same way.

HBEC30KT = assay: Cell viability (ATP, Cell Titer Glo, 4 days), HBEC30KT; type: cell-based, human
H2073 = assay: Cell viability dose-response, H2073; type: cell-based, human; conditions: Homo sapiens
Procedure, shortened: (§4)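 IC50 values derive from 12-point, 3-fold dilution curves starting at 50 micromolar, run in duplicate. ATP content was read by CellTiter-Glo after 4 days of compound treatment. Cells were plated at 15% confluence in RPMI-1640 containing 5% FBS and 2 mM L-glutamine.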

H1155 = assay: Cell viability dose-response, H1155; type: cell-based; conditions: Homo sapiens, NCI-H1155
Experimental: as §1, §2, §3

HCC366 = assay: Cell viability dose-response, HCC366; type: cell-based; conditions: Homo sapiens
Experimental: as §1, §2, §3

H1395 = assay: Cell viability dose-response, H1395; type: cell-based; conditions: Homo sapiens, NCI-H1395
Experimental: as §1, §2, §3

HCC44 = assay: Cell viability dose-response, HCC44; type: cell-based, human; conditions: Homo sapiens
Procedure, shortened: as §4

H2122 = assay: Cell viability dose-response, H2122; type: cell-based, human
Procedure, shortened: (§5)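 Cells plated at 15% confluence in RPMI-1640 with 5% FBS and 2 mM L-glutamine, treated with compound in a 12-point, 3-fold dilution series from 50 micromolar, in duplicate. ATP measured by Cell Titer Glo after 4 days; IC50 taken from the dose-response curve.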

H1993 = assay: Cell viability dose-response, H1993; type: cell-based; conditions: Homo sapiens, NCI-H1993
Experimental: as §1, §2, §3

H1819 = assay: Cell viability dose-response, H1819; type: cell-based, human
Procedure, shortened: as §5

HCC95 = assay: Cell viability dose-response, HCC95; type: cell-based; conditions: Homo sapiens
Experimental: as §1, §2, §3

H460 = assay: Cell viability dose-response, H460; type: cell-based; conditions: Homo sapiens, NCI-H460
Experimental: as §1, §2, §3

H2009 = assay: Cell viability dose-response, H2009; type: cell-based, human; conditions: Homo sapiens, NCI-H2009
Procedure, shortened: as §4

[1] = Homo sapiens, HCC4017, Tables 3 and 4, read-out: IC50 (uM) vs indicated non-small cell lung cancer cell line HCC4017
[2] = Homo sapiens, Tables 3 and 4, read-out: HBEC30KT IC50
[3] = NCI-H2073, Tables 3 and 4, read-out: IC50 (uM) vs indicated non-small cell lung cancer cell line H2073
[4] = Tables 3 and 4, read-out: IC50 (uM) vs indicated non-small cell lung cancer cell line H1155
[5] = Tables 3 and 4, read-out: IC50 (uM) vs indicated non-small cell lung cancer cell line HCC366
[6] = Tables 3 and 4, read-out: IC50 (uM) vs indicated non-small cell lung cancer cell line H1395
[7] = HCC44, Tables 3 and 4, read-out: IC50 (uM) vs indicated non-small cell lung cancer cell line HCC44
[8] = Homo sapiens, NCI-H2122, Tables 3 and 4, read-out: IC50 (uM) vs indicated non-small cell lung cancer cell line H2122
[9] = Tables 3 and 4, read-out: IC50 (uM) vs indicated non-small cell lung cancer cell line H1993
[10] = Homo sapiens, NCI-H1819, Tables 3 and 4, read-out: IC50 (uM) vs indicated non-small cell lung cancer cell line H1819
[11] = Tables 3 and 4, read-out: IC50 (uM) vs indicated non-small cell lung cancer cell line HCC95
[12] = Tables 3 and 4, read-out: IC50 (uM) vs indicated non-small cell lung cancer cell line H460
[13] = Tables 3 and 4, read-out: IC50 (uM) vs indicated non-small cell lung cancer cell line H2009
[14] = Homo sapiens, HCC4017, 12-point dose-response starting at 50 micromolar, 3-fold increments, in duplicate, read-out: toxicity data, HCC4017
[15] = Homo sapiens, 12-point dose-response starting at 50 micromolar, 3-fold increments, in duplicate, read-out: toxicity data, HBEC30KT
[16] = NCI-H2073, 12-point dose-response starting at 50 micromolar, 3-fold increments, in duplicate, read-out: toxicity data, H2073
[17] = 12-point dose-response starting at 50 micromolar, 3-fold increments, in duplicate, read-out: toxicity data, H1155
[18] = 12-point dose-response starting at 50 micromolar, 3-fold increments, in duplicate, read-out: toxicity data, HCC366
[19] = 12-point dose-response starting at 50 micromolar, 3-fold increments, in duplicate, read-out: toxicity data, H1395
[20] = HCC44, 12-point dose-response starting at 50 micromolar, 3-fold increments, in duplicate, read-out: toxicity data, HCC44
[21] = Homo sapiens, NCI-H2122, 12-point dose-response starting at 50 micromolar, 3-fold increments, in duplicate, read-out: toxicity data, H2122
[22] = 12-point dose-response starting at 50 micromolar, 3-fold increments, in duplicate, read-out: toxicity data, H1993
[23] = Homo sapiens, NCI-H1819, 12-point dose-response starting at 50 micromolar, 3-fold increments, in duplicate, read-out: toxicity data, H1819
[24] = 12-point dose-response starting at 50 micromolar, 3-fold increments, in duplicate, read-out: toxicity data, HCC95
[25] = 12-point dose-response starting at 50 micromolar, 3-fold increments, in duplicate, read-out: toxicity data, H460
[26] = 12-point dose-response starting at 50 micromolar, 3-fold increments, in duplicate, read-out: toxicity data, H2009

Compound: NC(=O)c1c(NC(=O)c2sc3ccccc3c2Cl)sc2c1CCCCC2 [SW155113]
- IC50 (HCC4017; [1]): 23 µM
- IC50 (HBEC30KT; [2]): 33 µM
- IC50 (H2073; [3]): 6 µM
- IC50 (H1155; [4]): 14.5 µM
- IC50 (HCC366; [5]): 22.5 µM
- IC50 (H1395; [6]): 13.4 µM
- IC50 (HCC44; [7]): 27 µM
- IC50 (H2122; [8]): 0.36 µM
- IC50 (H1993; [9]): 8.1 µM
- IC50 (H1819; [10]): 14 µM
- IC50 (HCC95; [11]): 100 µM
- IC50 (H460; [12]): 29 µM
- IC50 (H2009; [13]): 32 µM

Compound: O=C(Nc1cccc(NC(=O)c2sc3ccccc3c2Cl)c1)c1cccc(Cl)c1 [SW023441]
- IC50 (HCC4017; Tables 3 and 4, read-out: IC50 (uM) vs indicated non-small cell lung cancer cell line HCC4017): 18 µM
- IC50 (HBEC30KT; Tables 3 and 4, read-out: HBEC30KT IC50): 30 µM
- IC50 (H2073; [3]): 6.2 µM
- IC50 (H1155; [4]): 29 µM
- IC50 (HCC366; [5]): 23 µM
- IC50 (H1395; [6]): 10.5 µM
- IC50 (HCC44; [7]): 32 µM
- IC50 (H2122; [8]): 0.39 µM
- IC50 (H1993; [9]): 11 µM
- IC50 (H1819; [10]): 16.4 µM
- IC50 (HCC95; [11]): 14 µM
- IC50 (H460; [12]): 48 µM
- IC50 (H2009; [13]): 9.4 µM

Compound: COc1ccc(CCNC(=O)C(=O)Nc2ccc(Cl)cc2)cc1 [SW027951]
- IC50 (HCC4017; [14]): ≥ 50 µM
- IC50 (HBEC30KT; [15]): 50 µM
- IC50 (H2073; [16]): ≥ 50 µM
- IC50 (H1155; [17]): 50 µM
- IC50 (HCC366; [18]): 50 µM
- IC50 (H1395; [19]): 50 µM
- IC50 (HCC44; [20]): ≥ 50 µM
- IC50 (H2122; [21]): 0.15 µM
- IC50 (H1993; [22]): 50 µM
- IC50 (H1819; [23]): ≥ 50 µM
- IC50 (HCC95; [24]): 0.09 µM
- IC50 (H460; [25]): 1.34 µM
- IC50 (H2009; [26]): ≥ 50 µM

Compound: O=C(Nc1nc2ccccc2s1)c1cccnc1 [SW006981]
- IC50 (HCC4017; [1]): 76 µM
- IC50 (HBEC30KT; [2]): 272 µM
- IC50 (H2073; [3]): 12.5 µM
- IC50 (H1155; [4]): 95 µM
- IC50 (HCC366; [5]): 85 µM
- IC50 (H1395; [6]): 51 µM
- IC50 (HCC44; [7]): 63.7 µM
- IC50 (H2122; [8]): 0.26 µM
- IC50 (H1993; [9]): 21.5 µM
- IC50 (H1819; [10]): 50 µM
- IC50 (HCC95; [11]): 110 µM
- IC50 (H460; [12]): 180 µM
- IC50 (H2009; [13]): 325 µM

Compound: O=C(c1ccccc1)c1ccc(NC(=O)c2sc3ccccc3c2Cl)cc1 [SW025780]
- IC50 (HCC4017; [1]): 56 µM
- IC50 (HBEC30KT; [2]): 51 µM
- IC50 (H2073; [3]): 0.08 µM
- IC50 (H1155; [4]): 33 µM
- IC50 (HCC366; [5]): 248 µM
- IC50 (H1395; [6]): 99 µM
- IC50 (HCC44; [7]): 64 µM
- IC50 (H2122; [8]): 0.007 µM
- IC50 (H1993; [9]): 31 µM
- IC50 (H1819; [10]): 27 µM
- IC50 (HCC95; [11]): 7.7 µM
- IC50 (H460; [12]): 46 µM
- IC50 (H2009; [13]): 60 µM

Compound: COc1ccc(CCNC(=O)C(=O)Nc2cccc(Br)c2)cc1 [SW027952]
- IC50 (HCC4017; [14]): ≥ 50 µM
- IC50 (HBEC30KT; [15]): 19.8 µM
- IC50 (H2073; [16]): 17.5 µM
- IC50 (H1155; [17]): 50 µM
- IC50 (HCC366; [18]): 50 µM
- IC50 (H1395; [19]): 50 µM
- IC50 (HCC44; [20]): ≥ 50 µM
- IC50 (H2122; 12-point dose-response starting at 50 micromolar, 3-fold increments, in duplicate, read-out: toxicity data, H2122): 1.04 µM
- IC50 (H1993; [22]): 50 µM
- IC50 (H1819; 12-point dose-response starting at 50 micromolar, 3-fold increments, in duplicate, read-out: toxicity data, H1819): ≥ 50 µM
- IC50 (HCC95; [24]): 0.24 µM
- IC50 (H460; [25]): 50 µM
- IC50 (H2009; [26]): 11.3 µM

Compound: COc1ccc(C(=O)c2ccc(NC(=O)c3sc4ccccc4c3Cl)cc2)cc1 [SW202855-1]
- IC50 (HCC4017; [1]): 15.7 µM
- IC50 (HBEC30KT; [2]): 24.3 µM
- IC50 (H2073; [3]): 36.2 µM
- IC50 (H1155; [4]): 46.1 µM
- IC50 (HCC366; [5]): 49 µM
- IC50 (H1395; [6]): 28.4 µM
- IC50 (HCC44; [7]): 25.4 µM
- IC50 (H2122; [8]): 18.3 µM
- IC50 (H1993; [9]): 17.8 µM
- IC50 (H1819; [10]): 32 µM
- IC50 (HCC95; [11]): 9.84 µM
- IC50 (H460; [12]): 28.8 µM
- IC50 (H2009; [13]): 13.9 µM

Compound: COc1ccc(CCNC(=O)C(=O)Nc2ccc(C)c(C)c2)cc1 [SW027949]
- IC50 (HCC4017; [14]): ≥ 50 µM
- IC50 (HBEC30KT; [15]): 41.5 µM
- IC50 (H2073; [16]): ≥ 50 µM
- IC50 (H1155; [17]): 50 µM
- IC50 (HCC366; [18]): 50 µM
- IC50 (H1395; [19]): 50 µM
- IC50 (HCC44; [20]): ≥ 50 µM
- IC50 (H2122; [21]): 0.7 µM
- IC50 (H1993; [22]): 50 µM
- IC50 (H1819; [23]): ≥ 50 µM
- IC50 (HCC95; [24]): 0.17 µM
- IC50 (H460; [25]): 1.31 µM
- IC50 (H2009; [26]): ≥ 50 µM

Compound: COc1ccc2nc(NC(=O)c3ccc(OCc4ccccc4)cc3)sc2c1 [SW202773-1]
- IC50 (HCC4017; [1]): 21.1 µM
- IC50 (HBEC30KT; [2]): 24.9 µM
- IC50 (H2073; [3]): 0.268 µM
- IC50 (H1155; [4]): 23.6 µM
- IC50 (HCC366; [5]): 41.8 µM
- IC50 (H1395; [6]): 25.9 µM
- IC50 (HCC44; [7]): 0.122 µM
- IC50 (H2122; [8]): 0.0431 µM
- IC50 (H1993; [9]): 21.7 µM
- IC50 (H1819; [10]): 42.9 µM
- IC50 (HCC95; [11]): 0.163 µM
- IC50 (H460; [12]): 0.157 µM
- IC50 (H2009; [13]): 16.6 µM

From patent US9789096B2, “Methods and compositions for selective and targeted cancer therapy” (Board of Regents of the University of Texas System, priority 2013, dated 2017)
